Experimental data published in patent US20100256145A1, “USE OF KCNQ POTASSIUM CHANNEL OPENERS FOR REDUCING SYMPTOMS OF OR TREATING DISORDERS OR CONDITIONS WHEREIN THE DOPAMINERGIC SYSTEM IS DISRUPTED” (H. LUNDBECK A/S, priority 2007, published 2010).
Marks after values point to notes of the source that are not given here.

What was measured:
[1] = system: d-amphetamine induced hyperactivity in rats; experiment: Amphetamine-induced hyperactivity in the rat (amphetamine antagonism); assay type: in vivo; settings: read-out: Amphetamine antagonism ED50 (mg/kg) ± std. dev.
From the text: Subjects. Male Wistar rats (Taconic, Denmark) weighing 170-240 g are used. […] Eight rats are used at each dose level and in the parallel control group receiving the vehicle to the test compound plus d-amphetamine and the group receiving vehicle injections only.

[2] = system: extracellular DA levels in the nucleus accumbens; experiment: Microdialysis: amphetamine-evoked DA levels in the nucleus accumbens of freely moving rats; assay type: in vivo, rat; settings: for Normalised DA level in the nucleus accumbens: compound 8.1 mg/kg s.c., D-amphetamine 0.5 mg/kg s.c. 30 min later
Experimental: Subjects. Male Sprague-Dawley rats (Charles River), initially weighing 275-300 g, are used.
Surgery. Animals are anaesthetized with hypnorm/dormicum (2 ml/kg s.c.) and intracerebral guide cannulas (CMA/12) are stereotaxically implanted, positioning the dialysis probe tip in the nucleus accumbens (co-ordinates: 1.7 mm anterior to bregma, −1.2 mm lateral to bregma, 8.0 mm ventral to the dura). Anchor screws and acrylic cement is applied for fixation of the guide cannula. The body temperature of the animals is maintained at 37° C. by means of a rectal probe and a heating plate. The rats are allowed to recover from surgery for 2 days, housed singly in cages.
Experimental procedure. On the day of the experiment, a microdialysis probe (CMA/12, 0.5 mm diameter, 2 mm length) is inserted through the guide cannula of the conscious animal. The probes are connected to a microinjection pump via a dual channel swivel which allowed the animals unrestricted movements. Perfusion of the microdialysis probe with filtered Ringer solution (145 mM NaCl, 3 mM KCl, 1 mM MgCl2, 1.2 mM CaCl2) is maintained for the duration of the experiment at a constant flow rate of 1 μL/min. After 180 min of stabilisation, the experiments are initiated. Dialysates are collected every 20 min. After the experiments the rats are sacrificed by decapitation, their brains removed, frozen and sliced for probe placement verification.
Administration of compounds. […] Thirty minutes later, D-amphetamine sulphate (0.5 mg/kg s.c.) is administered.
Analysis of dialysate. The concentration of DA in the dialysates is assessed by means of HPLC with electrochemical detection. The dialysate constituents are separated by reverse phase liquid chromatography (ODS 150×3 mm, […]). Mobile phase consists of 90 mM NaH2PO4, 50 mM sodium citrate, 367 mg/l sodium 1-octanesulfonic acid, 50 μM EDTA and 8% acetonitrile (pH 4.0) at a flow rate of 0.5 ml/min. Electrochemical detection of DA is accomplished using a coulometric detector; potential set at E1=−75 mV and E2=300 mV (guard cell at 350 mV) (Coulochem II, ESA). The dialysate levels of DA in the three dialyse samples preceding the administration of compound are averaged and used as baseline level of DA (100%)
Statistical analysis. The dialysate levels of DA in the three dialyse samples preceding the administration of compound are averaged and used as baseline level of DA (100%). Data are analysed using repeated measure analyses of variance followed by post hoc tests (Tukey test), when appropriate. *P<0.05 were considered significant.

[3] = system: choice of the large-but-delayed reward (impulsivity); experiment: Rat T-maze procedure: large-but-delayed vs small-but-immediate reward; assay type: in vivo; settings: juvenile Wistar rats
Experimental: Subjects. male Wistar AF rats (28-41 days old) (Centre d′Elevage René Janvier, France) were used. […] During the whole study, tap water was provided ad libitum. Food was restricted to 5-10 g/day/animal in order to maintain animals at 65-75% of their free feeding weight
Experimental procedure. The experiments were performed in two identical T-maze apparatus constructed from opaque grey plastic tubing and consisting of a starting runway (30 cm long) and two arms (35 cm long) each leading to a rectangular black plastic goal box (18 cm large, 30 cm wide, 10 cm high). Removable grey plastic guillotine doors could be inserted into the vertical clefts, situated at the entry of the starting runway and at each end of the arms. One of the goal-boxes (left or right, depending on the rats) was constantly provided with a large reward, the other with a small reward. Large and small rewards consisted, respectively, of 5 and 1 pellets (20 mg, Technical & Scientific Equipment GmbH, Germany). The pellets were placed in a translucent food-cup before each trial.
First phase: habituation. Animals were first subjected to two 5-min sessions of habituation. The rat was gently introduced in the starting runway, which then was closed with a guillotine door inserted in the cleft (referred to as c0 in FIG. 1). The animal was allowed to freely explore the apparatus and to eat food rewards placed in the food cups.
Second phase: pretraining. After a door was placed in the cleft c2 near each goal-box, the rat was introduced in the starting runway. When it entered one of the two arms, a door was inserted behind it in the cleft c1 near the choice area and the door placed in cleft c2 was removed. As soon as the animal entered the goal-box, the door was placed again in the cleft c2. The rat was removed from the goal-box as soon as the pellets were eaten (usually within less than 1 min). The animal was then returned to its home cage for an intertrial interval of 2 to 3 min. Each rat was submitted one to five times/day to five trials sessions in this procedure. Training was initiated when the rat selected the arm giving access to the large reward in more than 14 out of 15 trials.
Third phase: training. Rats underwent one to five times/day five trials training sessions during which a delay was introduced before access to the large reward. After a door was placed in the cleft c2 near each goal-box, the rat was introduced in the starting runway. When it entered one of the two arms, a second door was inserted behind it in the cleft c1 near the choice area, so that rat selecting the arm leading to the large reward could be detained in this arm for a period (referred to as the waiting delay) before having access to the reinforcement. Otherwise, if the animal selected the arm leading to the small reward, the door placed in the cleft c2 was immediately opened, allowing the animal to enter the goal-box. At the beginning of training, the waiting delay was 30 sec. Then, if the percentage of choices of the large and delayed reward remained high (i.e. ≧40%) for more than six sessions, it was increased to 45 sec, and if necessary to 60 sec, 90 sec and finally 120 sec. Drug testing began when the animal selected the large and delayed reward in two trials out of five (or less) in two consecutive sessions and in one trial out of five (or less) in the following session.
Drug testing was conducted over six consecutive test-sessions of five trials each, during which the access to the large reward was preceded by the waiting delay. Test sessions were: Two control pre-drug sessions: control pre-drug session 1 and control pre-drug session 2; Two drug sessions: drug session 1 and drug session 2; Two control post-drug sessions: control post-drug session 1 and control post-drug session 2.

CCOC(=O)Nc1ccc(NCc2ccc(F)cc2)cc1N [Compound 1, reference compound]
ED50 [1]: 2.3 mg/kg
Normalised DA level in the nucleus accumbens ([2]; Time 0 min (baseline sample)): 96 ± 6 % of baseline
Normalised DA level in the nucleus accumbens ([2]; Time 20 min): 160 ± 11 % of baseline
Normalised DA level in the nucleus accumbens ([2]; Time 40 min): 241 ± 33 % of baseline
Normalised DA level in the nucleus accumbens ([2]; Time 60 min): 221 ± 26* % of baseline
Normalised DA level in the nucleus accumbens ([2]; Time 80 min): 217 ± 14* % of baseline
Normalised DA level in the nucleus accumbens ([2]; Time 100 min): 173 ± 9 % of baseline
Normalised DA level in the nucleus accumbens ([2]; Time 120 min): 139 ± 9 % of baseline
Normalised DA level in the nucleus accumbens ([2]; Time 140 min): 120 ± 9 % of baseline
Normalised DA level in the nucleus accumbens ([2]; Time −20 min (baseline sample)): 99 ± 6 % of baseline
Normalised DA level in the nucleus accumbens ([2]; Time −40 min (baseline sample)): 105 ± 3 % of baseline
Effect on the basal extracellular DA level in the nucleus accumbens ([2]; without amphetamine, data not shown): None of the latter three compounds significantly affects the basal extracellular DA level
% Choice of the large but delayed reward on Drug sessions ([3]; 5 mg/kg s.c. 30 min before the test): 26.7 ± 3.3 %
% Choice of the large but delayed reward on Control sessions ([3]; placebo administered before control (pre-drug and post-drug) sessions of the same group): 10.8 ± 2.0%
